Results published in patent publication US9546159B2, “N-substituted 3,4-bis (catechol) pyrrole compounds, and the preparation and use thereof in the treatment of cancer” (Centre National De La Recherche Scientifique (CNRS), priority 2012, dated 2017).

Assays:
Format in all cases: cell-based
[1] = test system: caspases 3 and 7 in HCT-116 cells; assay: caspases 3 and 7 activity (Apo-ONE test); conditions: HCT-116, 24 hours, 5 nM to 75 nM
Method: The activity of caspases 3 and 7, marker enzymes of apoptosis, was measured using the Apo-ONE (Promega) test after treating HCT-116 cells with compound (1) at concentrations varying from 5 nM to 75 nM.

[2] = test system: intracellular H2O2 in HCT-116 cells; assay: intracellular H2O2 concentration (DCF-DA, flow cytometry)
Excerpt: The protein peroxiredoxin is an enzyme having a peroxidase activity, controlling the intracellular hydrogen peroxide (H2O2) concentration. Therefore, we evaluated the effect of compound (1) on the intracellular H2O2 concentration, using DCF-DA (2′,7′-dichlorofluorescein diacetate, Sigma) as a marker of intracellular H2O2. Hydrogen peroxide is an intracellular second messenger. It regulates, according to the concentration thereof, numerous functions such as proliferation or apoptosis. A reduction of the concentration thereof is associated with a decrease in proliferation.

[3] = test system: protein LC3-II in HCT-116 cells; assay: autophagy: Western Blot of LC3-II; conditions: HCT-116, 24 hours, 5 nM to 100 nm
Method: In the aim of determining whether the stoppage of the cell cycle induced by compound (1) induces an autophagic reaction, the HCT-116 cells were treated with compound (1) at different doses for 24 hours. The cell extracts then underwent Western Blot analysis in order to view the expression of the protein LC3-II. Indeed, the protein LC3 exists in the cell either in cytosolic form (LC3-I) or associated with phagosomes (LC3-II). The latter is the marker of the autophagic reaction.

[4] = test system: Akt protein serine 473 phosphorylation, FOXO3, peroxiredoxin 1 in HCT-116 cells; assay: survival pathway PI3 kinase-Akt-Foxo Western Blot; conditions: HCT-116, 24 hours
Method: In view of the stoppage of the cell cycle in the G0/G1 phase associated with an autophagic response in the absence of apoptosis following treatment with compound (1), we studied the action of this compound on the survival pathway involving PI3 kinase-Akt-Foxo. This signalling pathway is very frequently found to be disrupted (by stimulation) in a large number of cancer cells and contributes to the survival thereof.
Indeed, HCT-116 cells were exposed for 24 hours to the action of compound (1) at concentrations varying from 5 nM to 100 nm.

U87 cells (glioblastoma) = assay: cell growth test (CellTiter-Blue Cell Viability Assay); conditions: Homo sapiens, U-87 MG, 72 hours of treatment, read-out: IC50 (concentration of compound inducing a 50% reduction of cell growth)
Method: (§1) The biological activity of compound (1) was studied in vitro on 3 different cancer cell lines: • HCT-116 (colorectal carcinoma) • U87 (glioblastoma) • K562 (myeloid leukaemia) and on 3 normal non-cancerous cell types: • HUVEC (human umbilical vascular endothelial cells) • NHDF (human dermal fibroblasts) • HFDPC (human hair follicle dermal papilla cells).
(§2) The cells selected for this study were incubated at 37° in the presence of compound (1) added in the culture medium at different concentrations and at different times.
(§3) The effect of compound (1) on HCT-116, U87 and K562 cell growth was evaluated using a cell growth test (CellTiter-Blue™ m Cell Viability Assay, Promega). The growth curves and the IC50 values (concentration of compound inducing a 50% reduction of cell growth) determined after 72 hours of cell treatment with compound (1) are presented in FIG. 1. They are 30 nm for HCT-116 cells, 45 nM for U87 cells and 70 nM for K562.

[5] = test system: HCT-116 cells (colorectal carcinoma); assay: as above; conditions: Homo sapiens, 72 hours of treatment, read-out: IC50 (concentration of compound inducing a 50% reduction of cell growth)
Method: as §1, §2, §3

K562 (myeloid leukaemia) = assay: as above; conditions: Homo sapiens; K562, 72 hours of treatment; read-out: IC50 (concentration of compound inducing a 50% reduction of cell growth)
Method: as §1, §2, §3

[6] = test system: proteins p21 and p27 in HCT-116 cells; assay: Western Blot of proteins p21 and p27; conditions: HCT-116, 24 hours
Method: The gene of the protein p27 is described as being regulated by FOXO3, whereas that of the protein p21 is controlled by the p53 transcription factor, stimulated inter alia by oxidative stress. The HCT-116 cells were treated with compound (1) for 24 hours. The cell extracts were then analysed by Western Blot.

HCT-116 cells [7] = assay: counting live cells after trypan blue staining
Method: The effect of compound (1) on cell growth was described in more detail on the HCT-116 cell line. This study was conducted as a function of the concentration and exposure time of the cells to the molecule under test (24 hrs, 48 hrs and 72 hrs) by counting the number of live cells after excluding dead cells by means of trypan blue staining.
FIG. 2 represents the effect of compound (I) on the number and viability of HCT-116 cells as a function of the concentration thereof and the treatment time.

HCT-116 cells [8] = assay: cell cycle flow cytometry analysis; conditions: HCT-116, 24 hours, 30 and 50 nM
Method: This effect is significant after 24 hours of exposure of the cells to compound (1) used at the 30 and 50 nM concentrations (FIG. 4).

HCT-116 cells [9] = assay: mitochondrial transmembrane potential (JC-1 probe, flow cytometry); conditions: HCT-116, 24 hours, 25 nM to 100 nM
Method: The study of the mitochondrial transmembrane potential, Δψm, was conducted by flow cytometry, using the JC-1 probe (MitoProbe™ JC-1 assay, Molecular Probes). JC-1 is a lipophilic […] compound which selectively penetrates the mitochondria, the colour whereof changes from green to red when the transmembrane potential increases.

[10] = test system: HFDPC (human hair follicle dermal papilla cells); assay: cell growth, normal cells; conditions: 72 hours of treatment
Method: as §1, §2, §3
(§4) In order to determine the specificity of action of compound (1) on cancer cells, we evaluated the effect thereof with respect to normal human HUVEC, NHDF and HFDPC cells and the HCT-116, U87 and K652 cancer cell annotations.

[11] = test system: NHDF cells (human dermal fibroblasts); assay: cell growth, normal cells; conditions: 72 hours of treatment
Method: as §1, §2, §3, §4

[12] = test system: HUVEC cells (human umbilical vascular endothelial cells); assay: cell growth, normal cells; conditions: 72 hours of treatment
Method: as §1, §2, §3, §4

normal human cells = assay: specificity of action: normal human cells versus cancer cells; conditions: in vitro, concentrations encompassing the IC50
Excerpt: as §4
The IC50 values are thus up to 300 times higher for normal cells compared to those obtained for cancer cells.

O=[N+]([O-])c1cc(-c2cn(CCCN3CCCCCCCCCCCC3)cc2-c2cc(O)c(O)c([N+](=O)[O-])c2)cc(O)c1O [compound (1), 5,5′-(1-(3-(Azacyclotridecan-1-yl)propyl)-1H-pyrrole-3,4-diyl)bis(3-nitrobenzene-1,2-diol)]
activity of caspases 3 and 7 [1]: lack of variations in the activity of these enzymes | dose dependence of the effect on intracellular H2O2 ([2]; HCT-116): dose dependent | decrease of the intracellular H2O2 concentration ([2]; HCT-116, 50 nM, 18 hours of treatment): approximately 50% | expression of LC3-II [3]: increase in the expression of LC3-II | expression of the protein FOXO3 ([4]; 5 nM to 100 nm): stimulates the expression of the protein FOXO3 | expression of the protein peroxiredoxin 1 ([4]; 5 nM to 100 nm): stimulates the expression of the protein peroxiredoxin 1 | Akt protein serine 473 phosphorylation ([4]; from the 25 nm concentration): totally suppresses | IC50 (U87 cells (glioblastoma)): 45 nM | IC50 [5]: 30 nM | IC50 (K562 (myeloid leukaemia)): 70 nM | expression of the protein p21 [6]: no significant effect | expression of protein p27 ([6]; 25 and 50 nM): increase in the expression of protein p27 | nature of the action (cytostatic / cytotoxic) (HCT-116 cells [7]; HCT-116): cytostatic and not cytotoxic | reduction of the number of cells (HCT-116 cells [7]; HCT-116, 25 nM, 24 hours of treatment): 40% | cell viability (trypan blue) (HCT-116 cells [7]; HCT-116, 24, 48 and 72 hrs): lack of modification of cell viability | inhibition of the number of cells (HCT-116 cells [7]; HCT-116, from 48 hours, concentrations greater than the IC50): up to 80% | effect on the cell cycle (HCT-116 cells [8]): blocks cell division in the G0/G1 phase | mitochondrial transmembrane potential Δψm (HCT-116 cells [9]): does not modify Δψm significantly | IC50 [10]: 10000 nM | IC50 [11]: 5000 nM | IC50 [12]: 2000 nM | cytotoxicity with respect to normal human cells (normal human cells): does not exhibit any cytotoxicity
